Laboratory results taken from patent US11530237B2, “Compositions and methods for treating CNS disorders” (Sage Therapeutics, Inc., priority 2014, dated 2022).

These compounds were tested against [35S]-TBPS binding, rat brain cortical membranes (assay: Steroid inhibition of TBPS binding ([35S]-TBPS radioligand displacement)). Conditions: 3 nM [35S]-TBPS, 5 μM GABA.
Protocol: TBPS binding assays using rat brain cortical membranes in the presence of 5 μM GABA has been described (Gee et al, J. Pharmacol. Exp. Then 1987, 241, 346-353; Hawkinson et al, Mol. Pharmacol. 1994, 46, 977-985; Lewin, A. H et al., Mol. Pharmacol. 1989, 35, 189-194).
Briefly, cortices are rapidly removed following decapitation of carbon dioxide-anesthetized Sprague-Dawley rats (200-250 g). The cortices are homogenized in 10 volumes of […] using a glass/teflon homogenizer and centrifuged at 1500×g for 10 min at 4° C. The resultant supernatants are centrifuged at 10,000×g for 20 min at 4° C. to obtain the P2 pellets. The P2 pellets are resuspended in 200 mM NaCl/50 mM Na—K phosphate pH 7.4 buffer and centrifuged at 10,000×g for 10 min at 4° C. This washing procedure is repeated twice and the pellets are resuspended in 10 volumes of buffer. Aliquots (100 μL) of the membrane suspensions are incubated with 3 nM [^35S]-TBPS and 5 μL aliquots of test drug dissolved in dimethyl sulfoxide (DMSO) (final 0.5%) in the presence of 5 μM GABA. The incubation is brought to a final volume of 1.0 mL with buffer. […] Following a 90 min incubation at room temp, the assays are terminated by filtration through glass fiber filters (Schleicher and Schuell No. 32) using a cell harvester (Braudel) and rinsed three times with ice-cold buffer. Filter bound radioactivity is measured by liquid scintillation spectrometry. Non-linear curve fitting of the overall data for each drug averaged for each concentration is done using Prism (GraphPad).
Various compounds are or can be screened to determine their potential as modulators of [^35S]-TBPS binding in vitro. These assays are or can be performed in accordance with the above discussed procedures.

Row | SMILES | IC50
1 | CC(C(=O)[C@H]1CC[C@H]2[C@@H]3CC[C@@H]4C[C@](C)(O)CC[C@]4(C)[C@H]3CC[C@]12C)n1ccnn1 (stereo in doubt) [Compound 58, (R)-1-((3R,5R,8R,9S,10S,13S,14S,17S)-3-hydroxy-3,10,13-trimethylhexadecahydro-1H-cyclopenta[a]phenanthren-17-yl)-2-(1H-1,2,3-triazol-1-yl)propan-1-one] | > 500 nM
2 | CC(C(=O)[C@H]1CC[C@H]2[C@@H]3CC[C@@H]4C[C@](C)(O)CC[C@]4(C)[C@H]3CC[C@]12C)n1nc2ccccc2n1 (stereo in doubt) [Compound 61, (S)-2-(2H-benzo[d][1,2,3]triazol-2-yl)-1-((3R,5R,8R,9S,10S,13S,14S,17S)-3-hydroxy-3,10,13-trimethylhexadecahydro-1H-cyclopenta[a]phenanthren-17-yl)propan-1-one] | 100 to 500 nM
3 | CC(C(=O)[C@H]1CC[C@H]2[C@@H]3CC[C@@H]4C[C@](C)(O)CC[C@]4(C)[C@H]3CC[C@]12C)n1nnc2ccccc21 (stereo in doubt) [Compound 63, (S)-2-(1H-benzo[d][1,2,3]triazol-1-yl)-1-((3R,5R,8R,9S,10S,13S,14S,17S)-3-hydroxy-3,10,13-trimethylhexadecahydro-1H-cyclopenta[a]phenanthren-17-yl)propan-1-one] | 10 to 50 nM
4 | C[C@@]1(O)CC[C@@]2(C)C(CC[C@H]3[C@@H]4CC[C@H](C(=O)Cn5nc6ccc(S(C)(=O)=O)cc6n5)[C@@]4(C)CC[C@@H]32)C1 (stereo in doubt) [Compound 104, 1-((3R,5R,8R,9S,10S,13S,14S,17S)-3-hydroxy-3,10,13-trimethylhexadecahydro-1H-cyclopenta[a]phenanthren-17-yl)-2-(5-(methylsulfonyl)-2H-benzo[d][1,2,3]triazol-2-yl)ethanone] | < 10 nM
5 | C[C@@]1(O)CC[C@@]2(C)[C@H](CC[C@@H]3[C@@H]2CC[C@]2(C)[C@@H](C(=O)Cn4cc(C#N)cn4)CC[C@@H]32)C1 [Compound 10, 1-(2-((3R,5R,8R,9S,10S,13S,14S,17S)-3-hydroxy-3,10,13-trimethylhexadecahydro-1H-cyclopenta[a]phenanthren-17-yl)-2-oxoethyl)-1H-pyrazole-4-carbonitrile] | < 10 nM
6 | C[C@@]1(O)CC[C@@]2(C)[C@H](CC[C@@H]3[C@@H]2CC[C@]2(C)[C@@H](C(=O)CN4CCOCC4)CC[C@@H]32)C1 [Compound 43, 1-((3R,5R,8R,9S,10S,13S,14S,17S)-3-hydroxy-3,10,13-trimethylhexadecahydro-1H-cyclopenta[a]phenanthren-17-yl)-2-morpholinoethanone] | 100 to 500 nM
7 | C[C@@H](C(=O)[C@H]1CC[C@H]2[C@@H]3CC[C@@H]4C[C@](C)(O)CC[C@]4(C)[C@H]3CC[C@]12C)n1nccn1 [Compound 57, (S)-1-((3R,5R,8R,9S,10S,13S,14S,17S)-3-hydroxy-3,10,13-trimethylhexadecahydro-1H-cyclopenta[a]phenanthren-17-yl)-2-(2H-1,2,3-triazol-2-yl)propan-1-one] | 100 to 500 nM
8 | C[C@@H](C(=O)[C@H]1CC[C@H]2[C@@H]3CC[C@@H]4C[C@](C)(O)CC[C@]4(C)[C@H]3CC[C@]12C)n1ccnn1 [Compound 59, (S)-1-((3R,5R,8R,9S,10S,13S,14S,17S)-3-hydroxy-3,10,13-trimethylhexadecahydro-1H-cyclopenta[a]phenanthren-17-yl)-2-(1H-1,2,3-triazol-1-yl)propan-1-one] | 100 to 500 nM
9 | C[C@H](C(=O)[C@H]1CC[C@H]2[C@@H]3CC[C@@H]4C[C@](C)(O)CC[C@]4(C)[C@H]3CC[C@]12C)n1nc2ccccc2n1 [Compound 60, (R)-2-(2H-benzo[d][1,2,3]triazol-2-yl)-1-((3R,5R,8R,9S,10S,13S,14S,17S)-3-hydroxy-3,10,13-trimethylhexadecahydro-1H-cyclopenta[a]phenanthren-17-yl)propan-1-one] | 10 to 50 nM
10 | C[C@H](C(=O)[C@H]1CC[C@H]2[C@@H]3CC[C@@H]4C[C@](C)(O)CC[C@]4(C)[C@H]3CC[C@]12C)n1nnc2ccccc21 [Compound 62, (R)-2-(1H-benzo[d][1,2,3]triazol-1-yl)-1-((3R,5R,8R,9S,10S,13S,14S,17S)-3-hydroxy-3,10,13-trimethylhexadecahydro-1H-cyclopenta[a]phenanthren-17-yl)propan-1-one] | 100 to 500 nM
11 | C[C@H](C(=O)[C@H]1CC[C@H]2[C@@H]3CC[C@@H]4C[C@](C)(O)CC[C@]4(C)[C@H]3CC[C@]12C)n1cc(C#N)cn1 [Compound 72, 1-((R)-1-((3R,5R, 8R, 9S, 10S, 13S, 14S, 17S)-3-hydroxy-3,10,13-trimethylhexadecahydro-1H-cyclopenta[a]phenanthren-17-yl)-1-oxopropan-2-yl)-1H-pyrazole-4-carbonitrile] | 10 to 50 nM
12 | C[C@@H](C(=O)[C@H]1CC[C@H]2[C@@H]3CC[C@@H]4C[C@](C)(O)CC[C@]4(C)[C@H]3CC[C@]12C)n1cc(C#N)cn1 [Compound 73, 1-((S)-1-((3R,5R,8R,9S,10S,13S,14S,17S)-3-hydroxy-3,10,13-trimethylhexadecahydro-1H-cyclopenta[a]phenanthren-17-yl)-1-oxopropan-2-yl)-1H-pyrazole-4-carbonitrile] | 10 to 50 nM
13 | C[C@H](C(=O)[C@H]1CC[C@H]2[C@@H]3CC[C@H]4C[C@](C)(O)CC[C@]4(C)[C@H]3CC[C@]12C)n1cc(C#N)cn1 [Compound 80, 1-((R)-1-((3R,5S,8R,9S,10S,13S,14S,17S)-3-hydroxy-3,10,13-trimethylhexadecahydro-1H-cyclopenta[a]phenanthren-17-yl)-1-oxopropan-2-yl)-1H-pyrazole-4-carbonitrile] | 100 to 500 nM
14 | C[C@@H](C(=O)[C@H]1CC[C@H]2[C@@H]3CC[C@H]4C[C@](C)(O)CC[C@]4(C)[C@H]3CC[C@]12C)n1cc(C#N)cn1 [Compound 81, 1-((S)-1-((3R,5S,8R,9S,10S,13S,14S,17S)-3-hydroxy-3,10,13-trimethylhexadecahydro-1H-cyclopenta[a]phenanthren-17-yl)-1-oxopropan-2-yl)-1H-pyrazole-4-carbonitrile] | 10 to 50 nM
15 | CN(C)C(=O)c1cnn(CC(=O)[C@H]2CC[C@H]3[C@@H]4CC[C@@H]5C[C@](C)(O)CC[C@]5(C)[C@H]4CC[C@]23C)c1 [Compound 86] | < 10 nM
16 | C[C@H](C(=O)[C@H]1CC[C@H]2[C@@H]3CC[C@H]4C[C@](C)(O)CC[C@]4(C)[C@H]3CC[C@]12C)n1nccn1 [Compound 90, (R)-1-((3R,5S,8R,9S,10S,13S,14S,17S)-3-hydroxy-3,10,13-trimethylhexadecahydro-1H-cyclopenta[a]phenanthren-17-yl)-2-(2H-1,2,3-triazol-2-yl)propan-1-one] | > 500 nM
17 | C[C@@H](C(=O)[C@H]1CC[C@H]2[C@@H]3CC[C@H]4C[C@](C)(O)CC[C@]4(C)[C@H]3CC[C@]12C)n1nccn1 [Compound 91, (S)-1-((3R,5S,8R,9S,10S,13S,14S,17S)-3-hydroxy-3,10,13-trimethylhexadecahydro-1H-cyclopenta[a]phenanthren-17-yl)-2-(2H-1,2,3-triazol-2-yl)propan-1-one] | 50 to 100 nM
